Measured values reported in US20250204247A1, “DISPLAY APPARATUS AND ELECTRONIC DEVICE” (SEMICONDUCTOR ENERGY LABORATORY CO., LTD., priority 2022, published 2025).

Assay: Solubility test in water (visual inspection for an insoluble residue)
Format: physicochemical
Conditions: for solubility in water relative to the solubility of hpp2Py in water: fraction of the hpp2Py solubility in water
Method: In a sample bottle (capacity: 20 mL) was put 1.16 mg of 1,1′-(9,9′-spirobi[9H-fluorene]-2,7-diyl)bis(1,3,4,6,7,8-hexahydro-2H-pyrimido[1,2-a]pyrimidine) (abbreviation: 2,7hpp2SF), and 0.5 mL of water was added thereto. This mixture was irradiated with ultrasonic waves for one minute. A precipitated white powder was found by visual inspection for an insoluble residue. After further addition of 0.5 mL of water and one-minute ultrasonic wave irradiation, a precipitated white powder was found by visual inspection. This procedure was repeatedly executed until the dissolution was confirmed by visual inspection.
The precipitated white powder was found until the total amount of water reached 3.0 mL. After further addition of 0.5 mL of water and ultrasonic wave irradiation, no precipitated white powder was found.
In a sample bottle (capacity: 100 mL) was put 1.08 mg of 1-(9,9′-spirobi[9H-fluorene]-2-yl)-1,3,4,6,7,8-hexahydro-2H-pyrimido[1,2-a]pyrimidine) (abbreviation: 2hppSF), and 50 mL of water was added thereto. A precipitated white powder was found by visual inspection for an insoluble residue. When 10 mL of water was further added, the precipitated white powder was not observed by visual inspection.
In a sample bottle (capacity: 5 mL) was put 50.2 mg of 1,1′-pyridine-2,6-diyl-bis(1,3,4,6,7,8-hexahydro-2H-pyrimido[1,2-a]pyrimidine) (abbreviation: hpp2Py), and 1.0 mL of water was added thereto. The dissolution was found by visual inspection for an insoluble residue.

| solubility in water relative to the solubility of hpp2Py in water | weight which can be dissolved in 1.0 mL of water (per 1.0 mL of water, dissolution confirmed by visual inspection) | SMILES |
| --- | --- | --- |
| less than or equal to 1/10 | – | c1ccc2c(c1)-c1ccccc1C21c2ccccc2-c2ccc(N3CCCN4CCCN=C43)cc21 [2hppSF, 1-(9,9′-spirobi[9H-fluoren]-2-yl)-1,3,4,6,7,8-hexahydro-2H-pyrimido[1,2-a]pyrimidine] |
| – | greater than or equal to 50.2 mg | c1cc(N2CCCN3CCCN=C32)nc(N2CCCN3CCCN=C32)c1 [hpp2Py, 1,1′-pyridine-2,6-diyl-bis(1,3,4,6,7,8-hexahydro-2H-pyrimido[1,2-a]pyrimidine), reference compound] |
| less than or equal to 1/10 | – | c1ccc2c(c1)-c1ccccc1C21c2cc(N3CCCN4CCCN=C43)ccc2-c2ccc(N3CCCN4CCCN=C43)cc21 [2,7hpp2SF, 1,1′-(9,9′-spirobi[9H-fluoren]-2,7-diyl)bis(1,3,4,6,7,8-hexahydro-2H-pyrimido[1,2-a]pyrimidine)] |
